Results taken from PubChem BioAssay (NCI).
Values joined by “and” are separate entries in the source; they are usually repeats but may differ in a detail not shown here. Equal values may be shown once.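 Cultured in 96-well plates, cells were exposed to test compound for 48 hours across five concentrations. Abbreviation: GI50, concentration required for 50% inhibition of growth. TGI: total growth inhibition.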

Columns and labels:
Experiment in all cases: NCI anticancer screen, dose series, 48 h
MALME-3M melanoma = tested on: MALME-3M melanoma
OVCAR-8 ovarian = tested on: OVCAR-8 ovarian
KM12 colon = tested on: KM12 colon
LOX IMVI melanoma = tested on: LOX IMVI melanoma
SNB-75 CNS = tested on: SNB-75 CNS
A549 NSCLC = tested on: A549 NSCLC
ACHN renal = tested on: ACHN renal
DU-145 prostate = tested on: DU-145 prostate
NCI-H460 lung = tested on: NCI-H460 lung
HT29 colon = tested on: HT29 colon

O=C1C(Nc2ccc(Cl)cc2)=C(I)C(=O)c2ncccc21
GI50 (MALME-3M melanoma): 0.875 µM
TGI (MALME-3M melanoma): 2.14 µM
GI50 (OVCAR-8 ovarian): 1.51 µM
TGI (OVCAR-8 ovarian): 3.12 µM
GI50 (KM12 colon): 1.68 µM
TGI (KM12 colon): 11 µM
GI50 (LOX IMVI melanoma): 0.624 µM
TGI (LOX IMVI melanoma): 2.11 µM
GI50 (SNB-75 CNS): 1.31 µM
TGI (SNB-75 CNS): 3.09 µM
GI50 (A549 NSCLC): 2.75 µM
TGI (A549 NSCLC): 9.48 µM
GI50 (ACHN renal): 0.376 µM
TGI (ACHN renal): 1.32 µM
GI50 (DU-145 prostate): 1.37 µM
TGI (DU-145 prostate): 3.37 µM

COc1c(O)c2c3c(cc(C)cc3c1C(C)C)OC2
TGI (MALME-3M melanoma): > 100 µM
TGI (NCI-H460 lung): > 100 µM
TGI (OVCAR-8 ovarian): > 100 µM
TGI (HT29 colon): > 100 µM
TGI (KM12 colon): > 100 µM
TGI (LOX IMVI melanoma): > 100 µM
TGI (SNB-75 CNS): > 100 µM
TGI (A549 NSCLC): > 100 µM
TGI (ACHN renal): > 100 µM

O=C(Nc1ccc(Br)cc1F)c1cc(I)ccc1O
GI50 (MALME-3M melanoma): 2.07 µM
TGI (MALME-3M melanoma): 5.56 µM
GI50 (NCI-H460 lung): 3.15 µM
TGI (NCI-H460 lung): > 100 µM
GI50 (OVCAR-8 ovarian): 3.01 µM
TGI (OVCAR-8 ovarian): 15.9 µM
GI50 (HT29 colon): 16.9 µM
TGI (HT29 colon): 78.3 µM
GI50 (KM12 colon): 2.98 µM
TGI (KM12 colon): 9.14 µM
GI50 (LOX IMVI melanoma): 2.78 µM
TGI (LOX IMVI melanoma): 14.3 µM
GI50 (A549 NSCLC): 3.17 µM
TGI (A549 NSCLC): > 100 µM
GI50 (DU-145 prostate): 3.89 µM
TGI (DU-145 prostate): > 100 µM

O=[N+]([O-])c1ccc(-n2nnc(C3=NCCN3)c2-c2ccccc2)cc1
TGI (MALME-3M melanoma): > 100 µM
TGI (NCI-H460 lung): > 100 µM
TGI (OVCAR-8 ovarian): > 100 µM
TGI (HT29 colon): > 100 µM
TGI (KM12 colon): > 100 µM
TGI (LOX IMVI melanoma): > 100 µM
TGI (SNB-75 CNS): > 100 µM
TGI (A549 NSCLC): > 100 µM
TGI (ACHN renal): > 100 µM

COc1ccc2c(CN3CCCC[C@H]3C(=O)O)cc3cc4c(cc3c2c1)OCO4
GI50 (NCI-H460 lung): 0.359 µM
TGI (NCI-H460 lung): 2.23 µM
GI50 (OVCAR-8 ovarian): 0.457 µM
TGI (OVCAR-8 ovarian): 11.7 µM
GI50 (HT29 colon): 0.374 µM
TGI (HT29 colon): 1.85 µM
GI50 (KM12 colon): 3.69 µM
TGI (KM12 colon): 52.5 µM
GI50 (LOX IMVI melanoma): 1.37 µM
TGI (LOX IMVI melanoma): 3.15 µM
GI50 (SNB-75 CNS): 0.397 µM
TGI (SNB-75 CNS): 2.28 µM
GI50 (A549 NSCLC): 1.1 µM
TGI (A549 NSCLC): 4.25 µM
GI50 (ACHN renal): 0.46 µM
TGI (ACHN renal): 2.43 µM
GI50 (DU-145 prostate): 5.72 µM
TGI (DU-145 prostate): 24.7 µM

COc1cc2c[n+](C)c3c4cc(OC)c(OC(C)C)cc4ccc3c2cc1OC
TGI (MALME-3M melanoma): > 100 µM
TGI (NCI-H460 lung): > 100 µM
TGI (OVCAR-8 ovarian): > 100 µM
TGI (HT29 colon): > 100 µM
TGI (KM12 colon): > 100 µM
TGI (LOX IMVI melanoma): > 100 µM
TGI (SNB-75 CNS): > 100 µM
TGI (A549 NSCLC): > 100 µM
TGI (ACHN renal): > 100 µM

NC(=O)N/N=C1/CCC(O)CC1CC(=O)O (centres undefined)
TGI (MALME-3M melanoma): > 100 µM
TGI (NCI-H460 lung): > 100 µM
TGI (OVCAR-8 ovarian): > 100 µM
TGI (HT29 colon): > 100 µM
TGI (KM12 colon): > 100 µM
TGI (LOX IMVI melanoma): > 100 µM
TGI (A549 NSCLC): > 100 µM
TGI (ACHN renal): > 100 µM
TGI (DU-145 prostate): > 100 µM

O=C(O)CC[C@H](NC(=O)c1ccc(-n2nc3ccc(O)cc3nc2=O)cc1)C(=O)O
TGI (MALME-3M melanoma): > 100 µM
TGI (NCI-H460 lung): > 100 µM
TGI (OVCAR-8 ovarian): > 100 µM
TGI (HT29 colon): > 100 µM
TGI (KM12 colon): > 100 µM
TGI (A549 NSCLC): > 100 µM
TGI (ACHN renal): > 100 µM

COc1ccc(/C=C/c2cc(OC)c(OC)c(OC)c2)cc1
TGI (MALME-3M melanoma): 74.3 µM
TGI (NCI-H460 lung): > 80.6 µM
TGI (OVCAR-8 ovarian): > 100 µM
TGI (HT29 colon): > 38 µM
TGI (KM12 colon): > 100 µM
TGI (LOX IMVI melanoma): > 100 µM
TGI (SNB-75 CNS): > 21.7 µM
TGI (A549 NSCLC): > 100 µM
TGI (ACHN renal): > 100 µM

N/N=C(/C(=O)Nc1cccc(Cl)c1)C(C(=O)c1ccc(O)cc1O)C1OC(=O)c2ccccc21 (centres undefined)
TGI (MALME-3M melanoma): > 100 µM
TGI (NCI-H460 lung): > 100 µM
TGI (OVCAR-8 ovarian): > 100 µM
TGI (HT29 colon): > 100 µM
TGI (KM12 colon): > 100 µM
TGI (LOX IMVI melanoma): > 100 µM
TGI (A549 NSCLC): > 100 µM
TGI (ACHN renal): > 100 µM

c1cncc(C2N3CCCCC3[C@@H]3c4[nH]c5ccccc5c4CCN23)c1 (some centres undefined)
TGI (NCI-H460 lung): > 100 µM
TGI (OVCAR-8 ovarian): > 100 µM
TGI (HT29 colon): > 100 µM
TGI (SNB-75 CNS): > 100 µM
TGI (A549 NSCLC): > 100 µM
TGI (ACHN renal): > 100 µM

O=C(c1ccc(Cl)cc1Cl)C1[C@H]2C(=O)N(c3ccc(Cc4ccc(N5C(=O)[C@@H]6ON(c7ccccc7)C(C(=O)c7ccc(Cl)cc7Cl)[C@@H]6C5=O)cc4)cc3)C(=O)[C@H]2ON1c1ccccc1 (some centres undefined)
TGI (MALME-3M melanoma): > 50 µM
TGI (NCI-H460 lung): > 50 µM
TGI (OVCAR-8 ovarian): > 50 µM
TGI (HT29 colon): > 50 µM
TGI (KM12 colon): > 50 µM
TGI (LOX IMVI melanoma): > 50 µM
TGI (SNB-75 CNS): > 50 µM
TGI (A549 NSCLC): > 50 µM
TGI (ACHN renal): > 50 µM

CCOC(=O)CC[C@H](NC(=O)c1nc[nH]c1[N+](=O)[O-])C(=O)OCC
TGI (MALME-3M melanoma): > 100 µM
TGI (NCI-H460 lung): > 100 µM
TGI (OVCAR-8 ovarian): > 100 µM
TGI (KM12 colon): > 100 µM
TGI (LOX IMVI melanoma): > 100 µM
TGI (A549 NSCLC): > 100 µM
TGI (ACHN renal): > 100 µM

O=S(=O)(/C=C/c1ccc(F)cc1)Cc1ccc(CS(=O)(=O)/C=C/c2ccc(F)cc2)cc1
TGI (MALME-3M melanoma): > 100 µM
TGI (NCI-H460 lung): > 100 µM
TGI (OVCAR-8 ovarian): > 100 µM
TGI (HT29 colon): > 100 µM
TGI (KM12 colon): > 100 µM
TGI (LOX IMVI melanoma): > 100 µM
TGI (SNB-75 CNS): > 100 µM
TGI (A549 NSCLC): > 100 µM
TGI (ACHN renal): > 100 µM

Cc1ccccc1C1OC(=O)c2ccc3ccccc3c21 (centres undefined)
TGI (MALME-3M melanoma): 14 µM
TGI (NCI-H460 lung): 12.6 µM
TGI (OVCAR-8 ovarian): 12.8 µM
TGI (HT29 colon): > 31.6 µM
TGI (KM12 colon): 13.7 µM
TGI (LOX IMVI melanoma): 7.45 µM
TGI (SNB-75 CNS): 31.3 µM
TGI (A549 NSCLC): 16.6 µM
TGI (ACHN renal): 28.6 µM

CCCCCCCCCCCCCCCC(=O)OCC1OC(n2cc(F)c(=O)[nH]c2=O)C(N)C(O)C1O (centres undefined)
TGI (MALME-3M melanoma): 38.2 µM
TGI (OVCAR-8 ovarian): 37.1 µM
TGI (HT29 colon): 42.1 µM
TGI (KM12 colon): 33.3 µM
TGI (LOX IMVI melanoma): 33.1 µM
TGI (SNB-75 CNS): 38.6 µM
TGI (A549 NSCLC): 33.1 µM
TGI (ACHN renal): 33.9 µM

CCCCCCC[CH2][Sn]([CH2]CCCCCCC)([O]c1cccc2cccnc12)[O]c1cccc2cccnc12
GI50 (MALME-3M melanoma): 1.44 µM
TGI (MALME-3M melanoma): 2.9 µM
GI50 (NCI-H460 lung): 3.12 µM
TGI (NCI-H460 lung): 10.7 µM
GI50 (OVCAR-8 ovarian): 2.39 µM
TGI (OVCAR-8 ovarian): 10.4 µM
GI50 (HT29 colon): 2.04 µM
TGI (HT29 colon): 3.94 µM
GI50 (KM12 colon): 1.91 µM
TGI (KM12 colon): 4.19 µM
GI50 (LOX IMVI melanoma): 1.77 µM
TGI (LOX IMVI melanoma): 3.64 µM
GI50 (SNB-75 CNS): 2.74 µM
TGI (SNB-75 CNS): 9.53 µM
GI50 (A549 NSCLC): 3.18 µM
TGI (A549 NSCLC): 12 µM
GI50 (ACHN renal): 2.98 µM
TGI (ACHN renal): 11.1 µM

O=C1C(c2ccccc2)=C(O)c2cccc3cccc1c23
TGI (MALME-3M melanoma): > 100 µM
TGI (NCI-H460 lung): > 100 µM
TGI (OVCAR-8 ovarian): > 100 µM
TGI (HT29 colon): > 100 µM
TGI (KM12 colon): > 100 µM
TGI (LOX IMVI melanoma): > 100 µM
TGI (SNB-75 CNS): > 100 µM
TGI (A549 NSCLC): > 100 µM
TGI (ACHN renal): > 100 µM

CC1(C)C2CCC13C(=O)C1OC3(C2)C2C(=O)c3ccccc3C(=O)C12 (centres undefined)
GI50 (MALME-3M melanoma): 39.7 µM
TGI (MALME-3M melanoma): > 100 µM
GI50 (NCI-H460 lung): > 100 µM
TGI (NCI-H460 lung): > 100 µM
GI50 (OVCAR-8 ovarian): > 100 µM
TGI (OVCAR-8 ovarian): > 100 µM
GI50 (HT29 colon): > 100 µM
TGI (HT29 colon): > 100 µM
GI50 (KM12 colon): 82.9 µM
TGI (KM12 colon): > 100 µM
GI50 (SNB-75 CNS): > 100 µM
TGI (SNB-75 CNS): > 100 µM
GI50 (A549 NSCLC): > 100 µM
TGI (A549 NSCLC): > 100 µM
GI50 (ACHN renal): > 100 µM
TGI (ACHN renal): > 100 µM

C[C@@]12CCC(=O)c3coc(c31)C(=O)c1cc3c(cc12)C(=O)C=CC3=O
GI50 (MALME-3M melanoma): > 1 µM
TGI (MALME-3M melanoma): > 1 µM and 31.3 µM
GI50 (NCI-H460 lung): > 1 µM
TGI (NCI-H460 lung): > 70.9 µM
GI50 (OVCAR-8 ovarian): > 1 µM
TGI (OVCAR-8 ovarian): > 1 µM and 30.2 µM
GI50 (HT29 colon): > 1 µM
TGI (HT29 colon): > 1 µM and 39.7 µM
GI50 (KM12 colon): > 1 µM
TGI (KM12 colon): > 61.6 µM
GI50 (LOX IMVI melanoma): > 1 µM
TGI (LOX IMVI melanoma): > 1 µM and 20.9 µM
GI50 (SNB-75 CNS): > 1 µM
TGI (SNB-75 CNS): > 1 µM and 43.9 µM
GI50 (A549 NSCLC): > 1 µM
TGI (A549 NSCLC): > 100 µM
GI50 (ACHN renal): > 1 µM
TGI (ACHN renal): > 1 µM and 30.3 µM
